According to patent publication US10793568B2, “Hormone receptor modulators for treating metabolic conditions and disorders” (ARDELYX, INC., priority 2016, dated 2020):
Where two headings read alike, the source gives them in different places.

Key:
[1] = molecular target: ligand binding domain of human FXR (Homo sapiens (Human), UniProt Q96RI1); assay: FXR ligand binding assay (LanthaScreen TR-FRET, SRC2-2 peptide recruitment); details: for Emax: read-out: % Efficacy
[2] = molecular target: human Farnesoid X receptor ligand-binding domain/Gal4 DNA binding domain chimera (Homo sapiens (Human), UniProt Q96RI1); assay: Cell-based assay of FXR activation (FXR-UAS-bla HEK 293T beta-lactamase reporter); details: cellular FXR beta-lactamase reporter assay; for Emax: HEK-293T, read-out: % Efficacy
Procedure, shortened: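 Readout is cleavage of the CCF4 FRET substrate (409 nm excitation, blue 447 nm signal) by beta-lactamase, expressed under UAS control after a Gal4–human FXR LBD chimera is activated in HEK 293T cells. Compounds were added as 3-fold dilutions for 16 h at 37 °C in 2% charcoal-stripped FBS medium. Curves were fit to a 3-parameter logistic equation to give pEC50, with % activation relative to GW4064.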

[3] = -log EC50, concentration required to produce 50% activation
[4] = extent of activation relative to GW4064
[5] = FXR-UAS-bla HEK 293T cells, 16 h, pEC50 = -log EC50

Chain of human Farnesoid X receptor ligand-binding domain/Gal4 DNA binding domain chimera (Q96RI1 262-486, change not shown): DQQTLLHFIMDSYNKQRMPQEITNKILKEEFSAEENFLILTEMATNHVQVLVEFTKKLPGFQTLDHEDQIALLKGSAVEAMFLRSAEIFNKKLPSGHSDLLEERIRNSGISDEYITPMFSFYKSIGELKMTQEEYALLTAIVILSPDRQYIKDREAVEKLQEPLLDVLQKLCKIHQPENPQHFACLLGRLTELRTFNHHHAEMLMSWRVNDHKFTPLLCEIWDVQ
Chain of human Farnesoid X receptor ligand-binding domain/Gal4 DNA binding domain chimera (P04386 1-147 partner): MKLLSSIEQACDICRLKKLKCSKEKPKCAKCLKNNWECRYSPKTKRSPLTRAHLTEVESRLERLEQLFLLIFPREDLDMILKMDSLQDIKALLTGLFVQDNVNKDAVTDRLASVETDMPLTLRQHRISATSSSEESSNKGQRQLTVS
Chain of ligand binding domain of human FXR (Q96RI1 262-486): as the sequence (Q96RI1 262-486, change not shown) above

| EC50 [1, 3] [nM] | % Efficacy [1, 4] [%] | pEC50 [2, 5] | % Efficacy [2, 4] [%] | Structure (SMILES) | Emax [1, 4] [%] | Emax [2, 4] [%] | EC50 [2, 5] [nM] | pEC50 [1, 3] | Emax [1] [%] |
| --- | --- | --- | --- | --- | --- | --- | --- | --- | --- |
| 2.51 |  |  |  | CC(CCS(=O)(=O)NC(=O)c1ccc(N2C[C@@H]3C[C@H]2C[C@H]3OCc2c(-c3c(Cl)cccc3Cl)noc2C2CC2)cc1)OC(=O)CCC(=O)O (stereo partly drawn) [Compound I-218, 4-({4-[({4-[(1S,4S,5R)-5-{[5-cyclopropyl-3-(2,6-dichlorophenyl)-1,2-oxazol-4-yl]methoxy}-2-azabicyclo[2.2.1]heptan-2-yl]phenyl}formamido)sulfonyl]butan-2-yl}oxy)-4-oxobutanoic Acid] | 146 | 101 | 5.01 |  |  |
|  |  |  |  | O=C(O)c1cc(OC2CC2)c2nc(N3C[C@@H]4C[C@H]3C[C@H]4OCc3c(-c4c(F)cccc4Cl)noc3C3CC3)sc2c1 [Compound I-263, 2-((1S,4S,5R)-5-((3-(2-chloro-6-fluorophenyl)-5-cyclopropylisoxazol-4-yl)methoxy)-2-azabicyclo[2.2.1]heptan-2-yl)-4-cyclopropoxybenzo[d]thiazole-6-carboxylic acid] | 150 | 109 | 0.1 | 8.6 |  |
|  |  |  |  | O=C(O)c1cc(C2CCCC2)c2nc(N3C[C@@H]4C[C@H]3C[C@H]4OCc3c(C4CCC5(CC4)CC5)noc3C3CC3)sc2c1 [Compound I-283, 4-cyclopentyl-2-((1S,4S,5R)-5-((5-cyclopropyl-3-(spiro[2.5]octan-6-yl)isoxazol-4-yl)methoxy)-2-azabicyclo[2.2.1]heptan-2-yl)benzo[d]thiazole-6-carboxylic acid] | 114 | 104 | 25.1 | 7 |  |
|  |  |  |  | O=C(O)CCc1ccc(N2C(=O)[C@@H]3C[C@H]2C[C@H]3OCc2c(-c3c(Cl)cccc3Cl)noc2C2CC2)c(F)c1 [Compound I-304, 3-{4-[(1S,4R,5R)-5-{[5-cyclopropyl-3-(2,6-dichlorophenyl)-1,2-oxazol-4-yl]methoxy}-3-oxo-2-azabicyclo[2.2.1]heptan-2-yl]-3-fluorophenyl}propanoic Acid] | 118 | 107 | 100 | 6.6 |  |
|  |  |  |  | CCCS(=O)(=O)NC(=O)c1ccc(N2C[C@@H]3C[C@H]2C[C@H]3OCc2c(-c3ccccc3C(F)(F)F)noc2C2CC2)c(F)c1 [Compound I-200, 4-((1S,4S,5R)-5-((5-cyclopropyl-3-(2-(trifluoromethyl)phenyl)isoxazol-4-yl)methoxy)-2-azabicyclo[2.2.1]heptan-2-yl)-3-fluoro-N-(propylsulfonyl)benzamide] | 215 | 110 | 0.251 | 8.6 |  |
|  |  |  |  | Cn1nc(C(=O)O)cc1N1C[C@@H]2C[C@H]1C[C@H]2OCc1c(-c2c(Cl)cccc2Cl)noc1C1CC1 [Compound I-180, 5-[(1S,4S,5R)-5-[[5-cyclopropyl-3-(2,6-dichlorophenyl)-1,2-oxazol-4-yl]methoxy]-2-azabicyclo[2.2.1]heptan-2-yl]-1-methyl-1H-pyrazole-3-carboxylic acid] |  |  | < 316 | >6.5 |  |
|  |  |  |  | O=C(NS(=O)(=O)CC1CCOCC1)c1ccc(N2C(=O)[C@@H]3C[C@H]2C[C@H]3OCc2c(-c3c(Cl)cccc3Cl)noc2C2CC2)cc1 [Compound I-339, 4-((1S,4R,5R)-5-((5-cyclopropyl-3-(2,6-dichlorophenyl)isoxazol-4-yl)methoxy)-3-oxo-2-azabicyclo[2.2.1]heptan-2-yl)-N-(((tetrahydro-2H-pyran-4-yl)methyl)sulfonyl)benzamide] | 198 | 118 | 5.01 | 8.6 |  |
|  |  |  |  | CN(CC(=O)O)S(=O)(=O)c1ccc(N2C[C@@H]3C[C@H]2C[C@H]3OCc2c(-c3c(Cl)cccc3Cl)noc2C2CC2)cc1 [Compound I-143, 2-{N-methyl4-[(1S,4S,5R)-5-{[5-cyclopropyl-3-(2,6-dichlorophenyl)-1,2-oxazol-4-yl]methoxy}-2-azabicyclo[2.2.1]heptan-2-yl]benzenesulfonamido}acetic Acid] | 132 | 105 | 1 | 8 |  |
|  |  |  |  | O=C(O)c1cc([C@H]2CCOC2)c2nc(N3C[C@@H]4C[C@H]3C[C@H]4OCc3c(-c4c(F)cccc4Cl)noc3C3CC3)sc2c1 [Compound I-265] | 146 | 110 | 0.501 | 8.4 |  |
|  |  |  |  | Cc1cccc(C)c1-c1noc(C2CC2)c1CO[C@@H]1C[C@@H]2C[C@H]1C(=O)N2c1ccc(C(=O)O)cc1 [Compound I-308, 4-[(1S,4R,5R)-5-{[5-cyclopropyl-3-(2,6-dimethylphenyl)-1,2-oxazol-4-yl]methoxy}-3-oxo-2-azabicyclo[2.2.1]heptan-2-yl]benzoic Acid] | 150 | 99 | 3.98 | 7.6 |  |
|  |  |  |  | O=C(O)c1nnc(N2C[C@@H]3C[C@H]2C[C@H]3OCc2c(-c3c(Cl)cccc3Cl)noc2C2CC2)s1 [Compound I-178, 5-[(1S,4S,5R)-5-{[5-cyclopropyl-3-(2,6-dichlorophenyl)-1,2-oxazol-4-yl]methoxy}-2-azabicyclo[2.2.1]heptan-2-yl]-1,3,4-thiadiazole-2-carboxylic Acid] | 86 | 70 | 158 | 6.9 |  |
|  |  |  |  | O=C(O)c1ccc(N2C[C@@H]3C[C@H]2C[C@H]3OCc2c(-c3ccccc3C(F)(F)F)noc2C2CC2)cc1 [Compound I-120, 4-[(1S,4S,5R)-5-({5-cyclopropyl-3-[2-(trifluoromethyl)phenyl]-1,2-oxazol-4-yl}methoxy)-2-azabicyclo[2.2.1]heptan-2-yl]benzoic Acid] | 188 | 112 | 2 | 8 |  |
|  |  |  |  | O=C(O)c1ccc(N2C[C@@H]3C[C@H]2C[C@H]3OCc2c(-c3c(Cl)cccc3Cl)noc2C2(F)CC2)cc1F [Compound I-122, 4-[(1S,4S,5R)-5-{[3-(2,6-dichlorophenyl)-5-(1-fluorocyclopropyl)-1,2-oxazol-4-yl]methoxy}-2-azabicyclo[2.2.1]heptan-2-yl]-2-fluorobenzoic Acid] | 137 | 102 | 1.58 | 9.6 |  |
|  |  |  |  | O=C(CCc1ccc(N2C[C@@H]3C[C@H]2C[C@H]3OCc2c(-c3c(Cl)cccc3Cl)noc2C2CC2)c(F)c1)NS(=O)(=O)C1CC1 [Compound I-237, 3-(4-((1S,4S,5R)-5-((5-cyclopropyl-3-(2,6-dichlorophenyl)isoxazol-4-yl)methoxy)-2-azabicyclo[2.2.1]heptan-2-yl)-3-fluorophenyl)-N-(cyclopropylsulfonyl)propanamide] | 162 | 94 | 2.51 | 8.7 |  |
|  |  |  |  | O=C(NS(=O)(=O)C1CCOC1)c1ccc(N2C[C@@H]3C[C@H]2C[C@H]3OCc2c(-c3c(Cl)cccc3Cl)noc2C2CC2)cc1 (stereo partly drawn) [Compound I-185, 4-((1S,4S,5R)-5-((5-cyclopropyl-3-(2,6-dichlorophenyl)isoxazol-4-yl)methoxy)-2-azabicyclo[2.2.1]heptan-2-yl)-N-((tetrahydrofuran-3-yl)sulfonyl)benzamide] | 155 | 105 | 0.1 | 8.9 |  |
|  | 150 | 9.3 | 104 | O=C(O)c1cc([C@H]2C[C@H]3CC[C@@H](C2)O3)c2nc(N3C[C@@H]4C[C@H]3C[C@H]4OCc3c(-c4c(Cl)cccc4Cl)noc3C3CC3)sc2c1 [Compound I-255, 2-[(1S,4S,5R)-5-{[5-cyclopropyl-3-(2,6-dichlorophenyl)-1,2-oxazol-4-yl]methoxy}-2-azabicyclo[2.2.1]heptan-2-yl]-4-[(1R,3R,5S)-8-oxabicyclo[3.2.1]octan-3-yl]-1,3-benzothiazole-6-carboxylic Acid] |  |  |  | 8.4 |  |
|  |  |  |  | CC(C)C(=O)OCCS(=O)(=O)NC(=O)c1ccc(N2C[C@@H]3C[C@H]2C[C@H]3OCc2c(-c3c(Cl)cccc3Cl)noc2C2CC2)cc1 [Compound I-213, 2-[({4-[(1S,4S,5R)-5-{[5-cyclopropyl-3-(2,6-dichlorophenyl)-1,2-oxazol-4-yl]methoxy}-2-azabicyclo[2.2.1]heptan-2-yl]phenyl}formamido)sulfonyl]ethyl 2-methylpropanoate] | 131 |  | < 31.6 | 9.4 |  |
|  |  |  |  | O=P(O)(O)CCc1ccc(N2C[C@@H]3C[C@H]2C[C@H]3OCc2c(-c3c(Cl)cccc3Cl)noc2C2CC2)cc1 [Compound I-175, (2-{4-[(1S,4S,5R)-5-{[5-cyclopropyl-3-(2,6-dichlorophenyl)-1,2-oxazol-4-yl]methoxy}-2-azabicyclo[2.2.1]heptan-2-yl]phenyl}ethyl)phosphonic Acid] |  | 101 | 631 | 8.2 | 120 |
|  |  |  |  | O=C(O)c1cc(O[C@H]2CCOC2)c2nc(N3C(=O)[C@@H]4C[C@H]3C[C@H]4OCc3c(-c4c(Cl)cccc4Cl)noc3C3CC3)sc2c1 [Compound I-302, 2-((1S,4R,5R)-5-((5-cyclopropyl-3-(2,6-dichlorophenyl)isoxazol-4-yl)methoxy)-3-oxo-2-azabicyclo[2.2.1]heptan-2-yl)-4-(((S)-tetrahydrofuran-3-yl)oxy)benzo[d]thiazole-6-carboxylic acid] | 106 | 114 | 39.8 | 8.4 |  |
